In PMC4747383, “Design of a peptidic inhibitor that targets the dimer interface of a prototypic galectin” (Oncotarget, 2015):
“Also recorded” adds a separate entry of the source. No end group written: not given here.

Experiments:
recombinant hGal-2 = assay: Disruption of hGal-2 dimers, native gel electrophoresis/Western blot; type: biochemical, human; conditions: recombinant hGal-2, 20 mM potassium phosphate pH 7.1, films overexposed, three independent experiments
Description: To measure the ability of the peptides to disrupt the formation of hGal-7 dimers, we used mild denaturing native gel electrophoresis, a commonly used approach to visualize monomer-dimer equilibrium (Fig. 1A and Supplementary Fig. S1). […] This specificity at disrupting hGal-7 dimer formation is provided by distinct three-dimensional arrangements between otherwise very similar galectin homologues. Indeed, while all monomeric galectins reveal identical topologies, dimer formation in hGal-7 proceeds through a “back-to-back” topology of the monomers while other galectins, including hGal-1 and hGal-2, adopt a “side-by-side” structural arrangement (Fig. 1B). This structural organization provides additional means to specifically target and disrupt galectin function.
Incubation of the recombinant B. hGal-1 and C. hGal-2 with hGal-7(129–135) was performed in the same potassium phosphate buffer. The effect of hGal-7(129–135) on the monomeric and dimeric forms of hGal-7/hGal-1/hGal-2 was assessed by Western blotting in native conditions with respective antibodies. The hGal-1/hGal-2 films were overexposed. PACAP28–38 was the control peptide used in order to ensure the specificity of hGal-7(129–135). […]
Human Gal-7 cDNA was cloned into pET-22b(+) using NdeI and HindIII restriction enzymes. […] Purified fractions were analyzed by SDS-PAGE. […]

recombinant hGal-7 = assay: Solid phase fluorescent binding assay on hGal-7; parameters: species or system human; conditions: hGal-7 10 μg/ml coated; unlabeled peptide (1 mM) 60 min, then biotin-labeled peptide 120 min, room temperature; Streptavidin R-phycoerythrin fluorescence; three independent experiments
Description: Results are representative of three independent experiments. Error bars represent standard deviation.

[1] = parameters: method as in PMID 22922050; conditions: ref [51]; cited from earlier work

| Substance | disruption of hGal-2 homodimers (recombinant hGal-2) | binding to immobilized hGal-7 (recombinant hGal-7) | binding of cell surface phospholipids [1] |
| --- | --- | --- | --- |
| H-LDSVRIP-NH2 [hGal-7(129–135), peptide corresponding to hGal-7 segment between residues 129–135] | No such effect was observed | direct interaction; also recorded: bind hGal-7 in a concentration-dependent and specific manner |  |
| PACAP(28–38): an inactive fragment of the human Pituitary Adenylate Cyclase-Activating Polypeptide (PACAP) (GKRYKQRVKNK-NH2; ends and bridges not checked; UniProt P18509 159-169, looked up, fragment) |  |  | binds cell surface phospholipids |
